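GI50: concentration for 50% inhibition of growth. The concentration for full growth arrest is given as TGI.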
Legend:
Assay in all cases: DTP human tumour cell line panel, 384-well format
NCI-H322M lung = tested on: NCI-H322M lung
OVCAR-3 ovarian = tested on: OVCAR-3 ovarian
HS 578T breast = tested on: HS 578T breast
SF-268 CNS = tested on: SF-268 CNS
T-47D breast = tested on: T-47D breast
CAKI-1 renal = tested on: CAKI-1 renal
SNB-75 CNS = tested on: SNB-75 CNS
EKVX NSCLC = tested on: EKVX NSCLC
NCI-H460 NSCLC = tested on: NCI-H460 NSCLC
NCI/ADR-RES ovarian = tested on: NCI/ADR-RES ovarian
UACC-62 melanoma = tested on: UACC-62 melanoma
SF-539 CNS = tested on: SF-539 CNS
MDA-MB-468 breast = tested on: MDA-MB-468 breast
BT-549 breast = tested on: BT-549 breast
HT29 colon = tested on: HT29 colon
PC-3 prostate = tested on: PC-3 prostate
OVCAR-8 ovarian = tested on: OVCAR-8 ovarian
IGROV1 ovarian = tested on: IGROV1 ovarian
SK-MEL-28 melanoma = tested on: SK-MEL-28 melanoma
K-562 leukemia = tested on: K-562 leukemia
SK-OV-3 ovarian = tested on: SK-OV-3 ovarian
MCF7 breast = tested on: MCF7 breast
COLO 205 colon = tested on: COLO 205 colon
SN12C renal = tested on: SN12C renal
OVCAR-4 ovarian = tested on: OVCAR-4 ovarian
HOP-62 NSCLC = tested on: HOP-62 NSCLC
RXF 393 renal = tested on: RXF 393 renal
LOX IMVI melanoma = tested on: LOX IMVI melanoma
MDA-MB-231 breast = tested on: MDA-MB-231 breast
U251 glioblastoma = tested on: U251 glioblastoma
NCI-H226 lung = tested on: NCI-H226 lung
UACC-257 melanoma = tested on: UACC-257 melanoma
SF-295 CNS = tested on: SF-295 CNS
SW-620 colon = tested on: SW-620 colon
HOP-92 NSCLC = tested on: HOP-92 NSCLC
CCRF-CEM leukemia = tested on: CCRF-CEM leukemia
MALME-3M melanoma = tested on: MALME-3M melanoma
HCT-15 colon = tested on: HCT-15 colon
MOLT-4 leukemia = tested on: MOLT-4 leukemia
HCC-2998 colon = tested on: HCC-2998 colon
M14 melanoma = tested on: M14 melanoma
UO-31 renal = tested on: UO-31 renal
DU-145 prostate = tested on: DU-145 prostate
HCT-116 colon = tested on: HCT-116 colon
A549 NSCLC = tested on: A549 NSCLC
MDA-MB-435 melanoma = tested on: MDA-MB-435 melanoma
A498 renal = tested on: A498 renal
RPMI-8226 leukemia = tested on: RPMI-8226 leukemia
NCI-H522 lung = tested on: NCI-H522 lung
786-0 renal = tested on: 786-0 renal
KM12 colon = tested on: KM12 colon
TK-10 renal = tested on: TK-10 renal
ACHN renal = tested on: ACHN renal
SNB-19 CNS = tested on: SNB-19 CNS
HL-60(TB) leukemia = tested on: HL-60(TB) leukemia
SR leukemia = tested on: SR leukemia
NCI-H23 lung = tested on: NCI-H23 lung
SK-MEL-5 melanoma = tested on: SK-MEL-5 melanoma

Q: What does the source list for `O=c1cc(-c2cccc3c2Sc2ccccc2S3)oc(N2CCOCC2)c1`?
A: GI50 (NCI-H322M lung): 11 µM; TGI (NCI-H322M lung): 23.1 µM; GI50 (OVCAR-3 ovarian): 12.7 µM; TGI (OVCAR-3 ovarian): 25.5 µM; GI50 (HS 578T breast): 6.58 µM; TGI (HS 578T breast): 18.5 µM; GI50 (SF-268 CNS): 12.1 µM; TGI (SF-268 CNS): 24.7 µM; GI50 (T-47D breast): 10.1 µM; TGI (T-47D breast): 21.8 µM; GI50 (CAKI-1 renal): 5.15 µM; TGI (CAKI-1 renal): 18.4 µM; GI50 (SNB-75 CNS): 10.7 µM; TGI (SNB-75 CNS): 22.7 µM; GI50 (EKVX NSCLC): 11.1 µM; TGI (EKVX NSCLC): 23.2 µM; GI50 (NCI-H460 NSCLC): 14.4 µM; TGI (NCI-H460 NSCLC): 28 µM; GI50 (NCI/ADR-RES ovarian): 11.1 µM; TGI (NCI/ADR-RES ovarian): 23.2 µM; GI50 (UACC-62 melanoma): 10.4 µM; TGI (UACC-62 melanoma): 22.3 µM; GI50 (SF-539 CNS): 12.2 µM; TGI (SF-539 CNS): 24.9 µM; GI50 (MDA-MB-468 breast): 8.61 µM; TGI (MDA-MB-468 breast): 20.7 µM; GI50 (BT-549 breast): 7.8 µM; TGI (BT-549 breast): 20.5 µM; GI50 (HT29 colon): 12 µM; TGI (HT29 colon): 24.7 µM; GI50 (PC-3 prostate): 6.39 µM; TGI (PC-3 prostate): 19.3 µM; GI50 (OVCAR-8 ovarian): 12.8 µM; TGI (OVCAR-8 ovarian): 25.7 µM; GI50 (IGROV1 ovarian): 7.75 µM; TGI (IGROV1 ovarian): 20.2 µM; GI50 (SK-MEL-28 melanoma): 10.4 µM; TGI (SK-MEL-28 melanoma): 22.2 µM; GI50 (K-562 leukemia): 5.04 µM; TGI (K-562 leukemia): 16.3 µM; GI50 (SK-OV-3 ovarian): 15.2 µM; TGI (SK-OV-3 ovarian): 28.7 µM; GI50 (MCF7 breast): 6.98 µM; TGI (MCF7 breast): 19.7 µM; GI50 (COLO 205 colon): 15.4 µM; TGI (COLO 205 colon): 28.9 µM; GI50 (SN12C renal): 11.5 µM; TGI (SN12C renal): 23.8 µM; GI50 (OVCAR-4 ovarian): 12.9 µM; TGI (OVCAR-4 ovarian): 25.6 µM; GI50 (HOP-62 NSCLC): 13.6 µM; TGI (HOP-62 NSCLC): 26.6 µM; GI50 (RXF 393 renal): 4.89 µM; TGI (RXF 393 renal): 17.6 µM; GI50 (LOX IMVI melanoma): 12.9 µM; TGI (LOX IMVI melanoma): 25.6 µM; GI50 (MDA-MB-231 breast): 11.3 µM; TGI (MDA-MB-231 breast): 23.5 µM; GI50 (U251 glioblastoma): 12.7 µM; TGI (U251 glioblastoma): 25.5 µM; GI50 (NCI-H226 lung): 12.7 µM; TGI (NCI-H226 lung): 25.3 µM; GI50 (UACC-257 melanoma): 10.2 µM; TGI (UACC-257 melanoma): 21.9 µM; GI50 (SF-295 CNS): 13.2 µM; TGI (SF-295 CNS): 26.1 µM; GI50 (SW-620 colon): 15.9 µM; TGI (SW-620 colon): 29.6 µM; GI50 (HOP-92 NSCLC): 10.1 µM; TGI (HOP-92 NSCLC): 21.7 µM; GI50 (CCRF-CEM leukemia): 7.99 µM; TGI (CCRF-CEM leukemia): 20.5 µM; GI50 (MALME-3M melanoma): 6.31 µM; TGI (MALME-3M melanoma): 19.2 µM; GI50 (HCT-15 colon): 7.02 µM; TGI (HCT-15 colon): 19.8 µM; GI50 (MOLT-4 leukemia): 7.2 µM; TGI (MOLT-4 leukemia): 19.9 µM; GI50 (HCC-2998 colon): 2.98 µM; TGI (HCC-2998 colon): 11.6 µM; GI50 (M14 melanoma): 10.6 µM; TGI (M14 melanoma): 22.5 µM; GI50 (UO-31 renal): 6.91 µM; TGI (UO-31 renal): 20.2 µM; GI50 (DU-145 prostate): 12.9 µM; TGI (DU-145 prostate): 25.7 µM; GI50 (HCT-116 colon): 9.36 µM; TGI (HCT-116 colon): 21.6 µM; GI50 (A549 NSCLC): 11.4 µM; TGI (A549 NSCLC): 23.8 µM; GI50 (MDA-MB-435 melanoma): 5.13 µM; TGI (MDA-MB-435 melanoma): 16.3 µM; GI50 (A498 renal): 4.26 µM; TGI (A498 renal): 15.3 µM; GI50 (RPMI-8226 leukemia): 3.35 µM; TGI (RPMI-8226 leukemia): 13.9 µM; GI50 (NCI-H522 lung): 12.4 µM; TGI (NCI-H522 lung): 24.9 µM; GI50 ([…]-0 renal): 10.6 µM; TGI (786-0 renal): 22.6 µM; GI50 (KM12 colon): 5.64 µM; TGI (KM12 colon): 17.7 µM; GI50 (TK-10 renal): 12 µM; TGI (TK-10 renal): 24.4 µM; GI50 (ACHN renal): 14.8 µM; TGI (ACHN renal): 28.1 µM; GI50 (SNB-19 CNS): 13.9 µM; TGI (SNB-19 CNS): 26.9 µM; GI50 (HL-60(TB) leukemia): 1.52 µM; TGI (HL-60(TB) leukemia): 3.17 µM; GI50 (SR leukemia): 2.53 µM; TGI (SR leukemia): 4.95 µM; GI50 (NCI-H23 lung): 16 µM; TGI (NCI-H23 lung): 29.6 µM; GI50 (SK-MEL-5 melanoma): 10.7 µM; TGI (SK-MEL-5 melanoma): 22.7 µM
